This passage reports MIC50 results from ChEMBL document CHEMBL5543144, “Discovery of a Novel Potent Tetrazole Antifungal Candidate with High Selectivity and Broad Spectrum” (J Med Chem, 2024).

SMILES strings stand for the structures. Converted amounts (≈) assume the structure as drawn. Some results are limits rather than exact numbers.

Holding throughout (assay type): functional
One assay concerns Pichia kudriavzevii. The experiment in a line: Antifungal activity against Candida krusei 4946 assessed as inhibition of fungal growth incubated for 24 hrs by CLSI protocol based microbroth dilution method. A general note: In broth dilution the organism is exposed to a series of concentrations in liquid medium.
Another assay deals with Cryptococcus neoformans. Put plainly: Antifungal activity against Cryptococcus neoformans H99 assessed as inhibition of fungal growth incubated for 72 hrs by CLSI protocol based microbroth dilution method.
The next assay relates to Candida tropicalis. The experiment in a line: Antifungal activity against Candida tropicalis 2718 assessed as inhibition of fungal growth incubated for 24 hrs by CLSI protocol based microbroth dilution method.
A further assay deals with Nakaseomyces glabratus. The experiment in a line: Antifungal activity against Candida glabrata 537 assessed as inhibition of fungal growth incubated for 48 hrs by CLSI protocol based microbroth dilution method.
In another assay the test system is Aspergillus fumigatus. The experiment in a line: Antifungal activity against Aspergillus fumigatus 7544 assessed as inhibition of fungal growth incubated for 48 hrs by CLSI protocol based microbroth dilution method.
For a further assay, the system named is Candida albicans. Put plainly: Antifungal activity against Candida albicans SC5314 assessed as inhibition of fungal growth incubated for 24 hrs by CLSI protocol based microbroth dilution method.
The subject of a further assay is Candida parapsilosis. The experiment in a line: Antifungal activity against Candida parapsilosis 22019 assessed as inhibition of fungal growth incubated for 24 hrs by CLSI protocol based microbroth dilution method. Conditions: Lodderomyces parapsilosis.

On to `C[C@@H](n1ccc2cc(-c3ccccc3)ccc2c1=O)[C@](O)(Cn1cncn1)c1ccc(F)cc1F`, for which the MIC50 is 1 µg/mL (≈ 2.12 µM) in the assay with Pichia kudriavzevii; 0.5 µg/mL (≈ 1.06 µM) in the assay on Cryptococcus neoformans; 0.016 µg/mL (≈ 0.0339 µM) in the assay with Candida tropicalis; 0.063 µg/mL (≈ 0.133 µM) in the assay on Nakaseomyces glabratus; 8 µg/mL (≈ 16.9 µM) in the assay on Aspergillus fumigatus; below 0.008 µg/mL in the assay with Candida albicans. For the same compound, in the assay on Candida parapsilosis, the MIC50 came out at 0.063 µg/mL (≈ 0.133 µM).

In the case of `C[C@@H](n1ccc2cc(C(F)(F)F)ccc2c1=O)[C@](O)(Cn1cncn1)c1ccc(F)cc1F`, the MIC50 with Pichia kudriavzevii is 0.063 µg/mL (≈ 0.136 µM); in the assay with Cryptococcus neoformans, below 0.008 µg/mL; in the assay with Candida tropicalis, below 0.008 µg/mL; with Nakaseomyces glabratus, below 0.008 µg/mL; in the assay on Aspergillus fumigatus it was 0.5 µg/mL (≈ 1.08 µM); with Candida albicans, below 0.008 µg/mL. For the same compound, the MIC50 with Candida parapsilosis was below 0.008 µg/mL.

Regarding `C[C@@H](n1ccc2cc(OC(F)(F)F)ccc2c1=O)[C@](O)(Cn1cncn1)c1ccc(F)cc1F`, the MIC50 was 0.063 µg/mL (≈ 0.131 µM) in the assay on Pichia kudriavzevii; below 0.008 µg/mL in the assay with Cryptococcus neoformans; below 0.008 µg/mL in the assay with Candida tropicalis; below 0.008 µg/mL in the assay on Nakaseomyces glabratus; 1 µg/mL (≈ 2.08 µM) in the assay with Aspergillus fumigatus; below 0.008 µg/mL in the assay with Candida albicans. Further, the MIC50 in the assay on Candida parapsilosis is below 0.008 µg/mL.

`C[C@@H](n1ncc2cn(-c3ccc(C(F)(F)F)cc3)nc2c1=O)[C@](O)(Cn1cncn1)c1ccc(F)cc1F`: the MIC50 with Pichia kudriavzevii was 16 µg/mL (≈ 30.1 µM); in the assay on Cryptococcus neoformans, 1 µg/mL (≈ 1.88 µM); in the assay on Candida tropicalis, 0.5 µg/mL (≈ 0.941 µM); in the assay on Nakaseomyces glabratus it was 0.5 µg/mL (≈ 0.941 µM); in the assay on Aspergillus fumigatus, above 64 µg/mL; with Candida albicans it was 0.25 µg/mL (≈ 0.47 µM). The MIC50 in the assay with Candida parapsilosis came out at 0.5 µg/mL (≈ 0.941 µM).

For the compound `C[C@@H](n1ccc2cc(Br)ccc2c1=O)[C@](O)(Cn1cncn1)c1ccc(F)cc1F`, the MIC50 with Pichia kudriavzevii is 0.063 µg/mL (≈ 0.133 µM); with Cryptococcus neoformans it was below 0.008 µg/mL; in the assay with Candida tropicalis it was below 0.008 µg/mL; in the assay on Nakaseomyces glabratus, below 0.008 µg/mL; in the assay with Aspergillus fumigatus, 1 µg/mL (≈ 2.1 µM); in the assay with Candida albicans it was below 0.008 µg/mL. Also, the MIC50 in the assay with Candida parapsilosis is below 0.008 µg/mL.

For `COc1ccc2c(=O)n([C@H](C)[C@](O)(Cn3cncn3)c3ccc(F)cc3F)ccc2c1`, the MIC50 in the assay on Pichia kudriavzevii is 0.125 µg/mL (≈ 0.293 µM); in the assay with Cryptococcus neoformans it was below 0.008 µg/mL; in the assay on Candida tropicalis, below 0.008 µg/mL; in the assay with Nakaseomyces glabratus, below 0.008 µg/mL; in the assay with Aspergillus fumigatus, 1 µg/mL (≈ 2.35 µM); with Candida albicans, below 0.008 µg/mL. Moreover, the MIC50 in the assay on Candida parapsilosis is below 0.008 µg/mL.

Regarding `C[C@@H](n1ncc2cn(-c3ccc(F)c(F)c3)nc2c1=O)[C@](O)(Cn1cncn1)c1ccc(F)cc1F`, the MIC50 in the assay with Pichia kudriavzevii was above 64 µg/mL; with Cryptococcus neoformans, above 64 µg/mL; in the assay with Candida tropicalis, 0.25 µg/mL (≈ 0.501 µM); in the assay on Nakaseomyces glabratus, 1 µg/mL (≈ 2 µM); in the assay with Aspergillus fumigatus, above 64 µg/mL; in the assay with Candida albicans, 0.5 µg/mL (≈ 1 µM). Further, the MIC50 with Candida parapsilosis is 1 µg/mL (≈ 2 µM).

Take `C[C@@H](n1ncc2cn(-c3ccc(F)c(Cl)c3)nc2c1=O)[C@](O)(Cn1cncn1)c1ccc(F)cc1F`: the MIC50 is above 64 µg/mL in the assay with Pichia kudriavzevii; above 64 µg/mL in the assay with Cryptococcus neoformans; 0.5 µg/mL (≈ 0.969 µM) in the assay with Candida tropicalis; 8 µg/mL (≈ 15.5 µM) in the assay with Nakaseomyces glabratus; above 64 µg/mL in the assay with Aspergillus fumigatus; 0.5 µg/mL (≈ 0.969 µM) in the assay with Candida albicans. For the same compound, the MIC50 in the assay with Candida parapsilosis worked out at 2 µg/mL (≈ 3.88 µM).

Turning to `C[C@@H](n1ccc2cc(F)ccc2c1=O)[C@](O)(Cn1cncn1)c1cc(F)ccc1F`, the MIC50 in the assay with Pichia kudriavzevii was 0.125 µg/mL (≈ 0.302 µM); in the assay with Cryptococcus neoformans, below 0.008 µg/mL; with Candida tropicalis it was below 0.008 µg/mL; in the assay with Nakaseomyces glabratus, below 0.008 µg/mL; in the assay with Aspergillus fumigatus it was 0.25 µg/mL (≈ 0.603 µM); with Candida albicans, below 0.008 µg/mL. In the assay on Candida parapsilosis, the MIC50 is below 0.008 µg/mL.

With `C[C@@H](n1ccc2cc(F)ccc2c1=O)[C@](O)(Cn1cnnn1)c1ccc(F)cc1F`, the MIC50 in the assay on Pichia kudriavzevii was 1 µg/mL (≈ 2.41 µM); in the assay on Cryptococcus neoformans, 0.016 µg/mL (≈ 0.0385 µM); with Candida tropicalis, below 0.008 µg/mL; in the assay with Nakaseomyces glabratus it was 0.063 µg/mL (≈ 0.152 µM); in the assay with Aspergillus fumigatus, 4 µg/mL (≈ 9.63 µM); in the assay with Candida albicans, below 0.008 µg/mL. Besides, the MIC50 in the assay on Candida parapsilosis stood at 0.063 µg/mL (≈ 0.152 µM).

Consider `C[C@@H](n1ncc2cc(Cl)ccc2c1=O)[C@](O)(Cn1cncn1)c1cc(F)ccc1F`, for which the MIC50 in the assay with Pichia kudriavzevii is 0.125 µg/mL (≈ 0.289 µM); in the assay with Cryptococcus neoformans, below 0.008 µg/mL; in the assay with Candida tropicalis, below 0.008 µg/mL; in the assay on Nakaseomyces glabratus it was below 0.008 µg/mL; with Aspergillus fumigatus, 0.25 µg/mL (≈ 0.579 µM); in the assay on Candida albicans, below 0.008 µg/mL. Moreover, the MIC50 with Candida parapsilosis is below 0.008 µg/mL.

For the compound `Cc1ccc2c(=O)n([C@H](C)[C@](O)(Cn3cncn3)c3ccc(F)cc3F)ccc2c1`, the MIC50 was 0.125 µg/mL (≈ 0.305 µM) in the assay on Pichia kudriavzevii; below 0.008 µg/mL in the assay with Cryptococcus neoformans; below 0.008 µg/mL with Candida tropicalis; below 0.008 µg/mL in the assay on Nakaseomyces glabratus; 0.5 µg/mL (≈ 1.22 µM) in the assay on Aspergillus fumigatus; below 0.008 µg/mL in the assay with Candida albicans. In addition, the MIC50 with Candida parapsilosis is below 0.008 µg/mL.

Regarding `C[C@@H](n1ncc2cn(-c3ccc(C#N)cc3)nc2c1=O)[C@](O)(Cn1cncn1)c1ccc(F)cc1F`, the MIC50 in the assay with Pichia kudriavzevii was above 64 µg/mL; with Cryptococcus neoformans it was 8 µg/mL (≈ 16.4 µM); with Candida tropicalis, 1 µg/mL (≈ 2.05 µM); with Nakaseomyces glabratus it was 0.5 µg/mL (≈ 1.02 µM); in the assay on Aspergillus fumigatus, above 64 µg/mL; in the assay on Candida albicans, 0.5 µg/mL (≈ 1.02 µM). Besides, the MIC50 in the assay with Candida parapsilosis stood at 1 µg/mL (≈ 2.05 µM).

With `C[C@@H](n1ncc2cc(Br)ccc2c1=O)[C@](O)(Cn1cncn1)c1ccc(F)cc1F`, the MIC50 in the assay with Pichia kudriavzevii was 0.063 µg/mL (≈ 0.132 µM); in the assay with Cryptococcus neoformans it was below 0.008 µg/mL; with Candida tropicalis it was below 0.008 µg/mL; with Nakaseomyces glabratus, 0.016 µg/mL (≈ 0.0336 µM); with Aspergillus fumigatus, 1 µg/mL (≈ 2.1 µM); in the assay on Candida albicans, below 0.008 µg/mL. In addition, in the assay on Candida parapsilosis, the MIC50 is below 0.008 µg/mL.

Regarding `C[C@@H](n1cnc2cc(F)ccc2c1=O)[C@](O)(Cn1cnnn1)c1ccc(F)cc1F`, the MIC50 with Pichia kudriavzevii was above 4 µg/mL; in the assay on Cryptococcus neoformans it was 4 µg/mL (≈ 9.61 µM); in the assay with Candida tropicalis, 0.25 µg/mL (≈ 0.6 µM); in the assay with Nakaseomyces glabratus it was 0.25 µg/mL (≈ 0.6 µM); with Aspergillus fumigatus, 16 µg/mL (≈ 38.4 µM); in the assay with Candida albicans, below 0.008 µg/mL. In the assay with Candida parapsilosis, the MIC50 is 0.5 µg/mL (≈ 1.2 µM).

As to `C[C@@H](n1ncc2ccccc2c1=O)[C@](O)(Cn1cncn1)c1ccc(F)cc1F`, the MIC50 in the assay with Pichia kudriavzevii amounted to 1 µg/mL (≈ 2.52 µM); in the assay with Cryptococcus neoformans it was 0.063 µg/mL (≈ 0.159 µM); in the assay with Candida tropicalis, 0.063 µg/mL (≈ 0.159 µM); with Nakaseomyces glabratus, 0.031 µg/mL (≈ 0.078 µM); in the assay on Aspergillus fumigatus, 4 µg/mL (≈ 10.1 µM); with Candida albicans, 0.008 µg/mL (≈ 0.0201 µM). Besides, the MIC50 in the assay with Candida parapsilosis turned out to be 0.063 µg/mL (≈ 0.159 µM).

For `C[C@@H](n1ncc2cn(-c3ccc(F)cc3)nc2c1=O)[C@](O)(Cn1cncn1)c1ccc(F)cc1F`, the MIC50 with Pichia kudriavzevii was 8 µg/mL (≈ 16.6 µM); in the assay on Cryptococcus neoformans it was 2 µg/mL (≈ 4.15 µM); in the assay with Candida tropicalis, 1 µg/mL (≈ 2.08 µM); with Nakaseomyces glabratus, 4 µg/mL (≈ 8.31 µM); with Aspergillus fumigatus, above 64 µg/mL; with Candida albicans, 0.25 µg/mL (≈ 0.519 µM). For the same compound, the MIC50 in the assay on Candida parapsilosis was 2 µg/mL (≈ 4.15 µM).

Turning to `C[C@@H](n1ccc2cc(Cl)ccc2c1=O)[C@](O)(Cn1cncn1)c1cc(F)ccc1F`, the MIC50 is 0.063 µg/mL (≈ 0.146 µM) with Pichia kudriavzevii; below 0.008 µg/mL in the assay with Cryptococcus neoformans; below 0.008 µg/mL with Candida tropicalis; below 0.008 µg/mL with Nakaseomyces glabratus; 0.25 µg/mL (≈ 0.58 µM) in the assay with Aspergillus fumigatus; below 0.008 µg/mL with Candida albicans. In addition, in the assay on Candida parapsilosis, the MIC50 was below 0.008 µg/mL.

For the compound `C[C@@H](n1ncc2cn(-c3ccc(OC(F)(F)F)cc3)nc2c1=O)[C@](O)(Cn1cncn1)c1ccc(F)cc1F`, the MIC50 in the assay on Pichia kudriavzevii was above 64 µg/mL; with Cryptococcus neoformans, above 64 µg/mL; in the assay on Candida tropicalis, 0.5 µg/mL (≈ 0.913 µM); with Nakaseomyces glabratus, 1 µg/mL (≈ 1.83 µM); with Aspergillus fumigatus, above 64 µg/mL; in the assay on Candida albicans, 0.5 µg/mL (≈ 0.913 µM). For the same compound, the MIC50 in the assay with Candida parapsilosis stood at 0.5 µg/mL (≈ 0.913 µM).

Take `C[C@@H](n1ncc2cn(-c3ccc(Cl)c(Cl)c3)nc2c1=O)[C@](O)(Cn1cncn1)c1ccc(F)cc1F`: the MIC50 with Pichia kudriavzevii is above 64 µg/mL; in the assay with Cryptococcus neoformans, above 64 µg/mL; in the assay on Candida tropicalis, 0.25 µg/mL (≈ 0.47 µM); with Nakaseomyces glabratus, 0.5 µg/mL (≈ 0.939 µM); in the assay with Aspergillus fumigatus, above 64 µg/mL; with Candida albicans it was 0.125 µg/mL (≈ 0.235 µM). Also, the MIC50 in the assay with Candida parapsilosis was 0.25 µg/mL (≈ 0.47 µM).

For orientation: MIC50 means an inhibitory concentration at the 50% level, which refers to growth in some studies and to a panel of isolates in others.
